21 molecules from ChEMBL document CHEMBL5344422, “Syrosingopine Enhances 20S Proteasome Activity and Degradation of α-Synuclein” (J Nat Prod, 2024) can be followed below.

Active and inactive are the calls of the source. The rule behind the calls is not given here. Peptide text beside a SMILES is read from it. * marks the point of attachment. Cbz = O=C(OCc1ccccc1)*

The target of experiment [1] is T1, 20S proteasome (Homo sapiens) (UniProt P49721+P20618+P28074+P28062+P28065+P28072+P25786+P25787+P25788+P25789+P28066+P60900+O14818+Q8TAA3+P40306+A5LHX3+P49720+P28070+Q99436). Nature of the experiment: Activation of human 20S proteasome chymotrypsin-like hydrolysis activity assessed as measuring fold increase in protein activity using SucLLVY-MCA as a fluorogenic substrate at 20 uM incubated for 1 hrs by fluorescence based assay relative to DMSO. The experiment is classed as protein-complex assay.

Experiment [2] has as its target T1, 20S proteasome (Homo sapiens). Kind of experiment: Activation of 20S proteasome in human HeLa cells assessed as gate opening by measuring increase in membrane-permeable fluorescent probe signal pretreated for 20 hrs followed by treated with Me4BodipyFL-Ahx3Lue3VS probe for 2 hrs by flow cytometry relative to DMSO. The experiment is classed as cell-based. The note with it: filed as activator, time 22.0 hrs. Background: Flow cytometry measures light scatter and fluorescence of single cells or particles in a stream.

Experiment [3] shares this target. Kind of experiment: Activation of human 20S proteasome chymotrypsin-like hydrolysis activity assessed as measuring fold increase in protein activity using SucLLVY-MCA as a fluorogenic substrate at 10 uM incubated for 20 mins by fluorescence based assay relative to DMSO. The format is protein-complex assay. The note with it: filed as activator.
Experiment [4] shares this target. Nature of the experiment: Activation of human 20S proteasome chymotrypsin-like hydrolysis activity assessed as concentration to doubling the protein activity using SucLLVY-MCA as a fluorogenic substrate measured after 1 hr by fluorescence based assay. The format is protein-complex assay. The note with it: filed as activator.
For experiment [5] the target is unchanged. Nature of the experiment: Activation of human 20S proteasome trypsin-like hydrolysis activity assessed as concentration to doubling the protein activity using […] as a fluorogenic substrate measured after 1 hr by fluorescence based assay. The format is protein-complex assay. The note with it: filed as activator.
For experiment [6] the target is unchanged. Kind of experiment: Activation of human 20S proteasome caspase-like hydrolysis activity assessed as concentration to doubling the protein activity using […] as a fluorogenic substrate measured after 1 hr by fluorescence based assay. The experiment is classed as protein-complex assay. Conditions: filed as activator.
The target is the same in experiment [7]. Kind of experiment: Activation of human 20S proteasome mediated chymotrypsin-like proteolytic activity assessed as maximal fold increase in protein activity using SucLLVY-MCA as a fluorogenic substrate incubated for 1 hr by fluorescence based assay. The format is protein-complex assay. The note with it: filed as activator.
Experiment [8] has the same target. Kind of experiment: Activation of human 20S proteasome mediated trypsin-like proteolytic activity assessed as maximal fold increase in protein activity using […] as a fluorogenic substrate incubated for 1 hr by fluorescence based assay. The experiment is classed as protein-complex assay. Conditions: filed as activator.
Experiment [9] has the same target. Nature of the experiment: Activation of human 20S proteasome mediated caspase-like proteolytic activity assessed as maximal fold increase in protein activity using […] as a fluorogenic substrate incubated for 1 hr by fluorescence based assay. The format is protein-complex assay. Conditions: filed as activator.
Experiment [10] addresses 26S proteasome (Homo sapiens) (UniProt Q99460+P49721+P20618+P28074+P28062+P28065+P28072+O00487+P25786+P25787+P25788+P25789+P28066+P60900+O14818+Q8TAA3+P40306+A5LHX3+P49720+P28070+Q99436+Q16186+P35998+P62191+P43686+P62333+P17980+P62195+Q13200+O43242+O00232+O00231+Q15008+P51665+Q9UNM6+P55036+P48556+P60896). Nature of the experiment: Activation of human 26S proteasome mediated proteolytic hydrolysis activity using SucLLVY-AMC as a flurogenic substrate measured every minute for 1 hrs by fluorescence based assay. The experiment is classed as protein-complex assay.

Experiment [11] concerns the target T1, 20S proteasome (Homo sapiens). Nature of the experiment: Activation of human 20S proteasome assessed as alpha-synuclein degradation in presence of MG132 incubated for 20 mins by Western blot analysis. The experiment is classed as protein-complex assay. For orientation: A western blot detects proteins with antibodies after separation by electrophoresis.
Experiment [12] has the same target. Nature of the experiment: Activation of human 20S proteasome assessed as alpha-synuclein degradation incubated for 20 mins by Western blot analysis. The experiment is classed as protein-complex assay. The note with it: filed as activator.
The target is the same in experiment [13]. Kind of experiment: Activation of human 20S proteasome chymotrypsin-like hydrolysis activity assessed as measuring fold increase in protein activity using SucLLVY-MCA as a fluorogenic substrate at 20 uM incubated for 20 mins by fluorescence based assay relative to DMSO. The format is protein-complex assay. The note with it: filed as activator.

Regarding `CC(C)[C@H]1C(=O)N2CCC[C@H]2[C@]2(O)O[C@](NC(=O)[C@@H]3C[C@@H]4c5cccc6[nH]cc(c56)C[C@H]4N(C)C3)(C(C)C)C(=O)N12`, the fold change (FC) in [1] (filed as activator) was 4.3.
On to `CC(C)C[C@@H](C=O)NC(=O)[C@H](CC(C)C)NC(=O)[C@H](CC(C)C)NC(=O)OCc1ccccc1` (Cbz-Leu-Leu-Leu-aldehyde), for which the Activity in experiment [2] was 0.11.
Take `COC(=O)[C@H]1[C@H]2C[C@H]3c4[nH]c5ccccc5c4CCN3C[C@H]2CC[C@@H]1O`: the fold change (FC) in [1] is below 3; in experiment [3], 1.32.
With `COC(=O)[C@H]1[C@H]2C[C@@H]3c4[nH]c5cc(OC)ccc5c4CCN3C[C@H]2C[C@@H](OC(=O)c2cc(OC)c(OC)c(OC)c2)[C@@H]1OC`, the fold change (FC) in experiment [1] (filed as activator) worked out at 7.9; in experiment [3] it was 7.91; in [7], 4.8; in [8], 7; in [9] it was 7. Besides, the CD worked out at 1.6 µM in experiment [4], 1.3 µM in experiment [5] and 0.53 µM in [6]. The outcome in [10] and in [11] was inactive. For the same molecule, the result in [12] was Active.
Turning to `CN(C)CCCN1c2ccccc2Sc2ccc(Cl)cc21`, the fold change (FC) in [13] came to 4.09. Further, the Activity in experiment [2] was determined as 1.29.
In the case of `CC(C)=CCC/C(C)=C/CC/C(C)=C/CC/C(C)=C/CC1=C(C)C(=O)c2ccccc2C1=O`, the fold change (FC) in experiment [1] (filed as activator) worked out at 4.5.
As to `COc1ccc2c3c([nH]c2c1)[C@H]1C[C@H]2[C@H](C[C@@H](O)[C@H](OC)[C@H]2C(=O)O)CN1CC3`, the fold change (FC) was below 3 in experiment [1] and 2.73 in experiment [3].
For `CN1C[C@H](C(=O)N[C@]2(C)O[C@@]3(O)[C@@H]4CCCN4C(=O)[C@H](Cc4ccccc4)N3C2=O)C=C2c3cccc4[nH]cc(c34)C[C@H]21`, the fold change (FC) in experiment [1] (filed as activator) is 7.2.
As for `Cc1cc2nc3c(=O)[nH]c(=O)nc-3n(C[C@H](O)[C@H](O)[C@H](O)CO)c2cc1C`, in [1] (filed as activator), the fold change (FC) was 4.5.
The same measure, in the same setting: the same measure for `CC(C)C[C@H]1C(=O)N2CCC[C@H]2[C@]2(O)O[C@](NC(=O)[C@@H]3C=C4c5cccc6[nH]c(Br)c(c56)C[C@H]4N(C)C3)(C(C)C)C(=O)N12`: 6.7; for `C[C@H]1[C@H](C)CC[C@]2(C(=O)O)CC[C@]3(C)C(=CC[C@@H]4[C@@]5(C)CC[C@H](O)C(C)(C)[C@@H]5CC[C@]43C)[C@H]12`: 6.5.
Regarding `COC(=O)[C@H]1/C(=N/O)CC[C@H]2CN3CCc4c([nH]c5ccccc45)[C@@H]3C[C@@H]21`, the results for the fold change (FC) in experiment [1] and in experiment [3] were below 3 and 1.49, respectively.
On to `Cc1cc2c(C(C)C)c(O)c(O)c(C=O)c2c(O)c1-c1c(C)cc2c(C(C)C)c(O)c(O)c(C=O)c2c1O`, for which the fold change (FC) in experiment [1] (filed as activator) came to 4.
Turning to `COC(=O)[C@@H]1[C@H]2C[C@H]3c4[nH]c5ccccc5c4CCN3C[C@@H]2CC[C@@H]1O`, the values for the fold change (FC) in [1] and in experiment [3] were below 3 and 0.82, respectively.
For the molecule `O=C(O)[C@@H]1[C@H]2C[C@H]3c4[nH]c5ccccc5c4CCN3C[C@@H]2CC[C@@H]1O`, the fold change (FC) in experiment [1] is below 3; in [3] it was 2.17.
As to RAUWOLFIA SERPENTINA, the fold change (FC) is below 3 in experiment [1] and 1.05 in experiment [3].
As to `CC(C)[C@@]1(NC(=O)[C@@H]2C[C@@H]3c4cccc5[nH]cc(c45)C[C@H]3N(C)C2)O[C@@]2(O)[C@@H]3CCCN3C(=O)[C@H](Cc3ccccc3)N2C1=O`, in experiment [1] (filed as activator), the fold change (FC) stood at 8.
For `CCOC(=O)Oc1c(OC)cc(C(=O)O[C@@H]2C[C@@H]3CN4CCc5c([nH]c6cc(OC)ccc56)[C@H]4C[C@@H]3[C@H](C(=O)OC)[C@H]2OC)cc1OC`, the fold change (FC) turned out to be 13 in experiment [1] (filed as activator); 12.5 in experiment [3]; 9.8 in experiment [7]; 8 in [8]; 9.4 in [9]. Besides, the figures for the CD in experiment [4], in [5] and in experiment [6] were 1 µM, 0.96 µM and 0.38 µM, respectively. The outcome in [10] was inactive. For the same molecule, the result in experiment [11] (filed as activator) and in experiment [12] was Active. Further, the Activity in experiment [2] came out at 2.84.
For the molecule `COC(=O)[C@H]1[C@H]2C[C@H]3c4[nH]c5ccccc5c4CCN3C[C@@H]2CC[C@@H]1O`, the fold change (FC) in experiment [1] is below 3; in experiment [3], 0.99.
As to `COc1cc(/C=C/C(=O)CC(=O)/C=C/c2ccc(O)c(OC)c2)ccc1O`, in experiment [1] (filed as activator), the fold change (FC) turned out to be 5.4.
Same read-out and setting: the same measure for `CC(C)C[C@H]1C(=O)N2CCC[C@H]2[C@]2(O)O[C@](NC(=O)[C@@H]3C=C4c5cccc6[nH]cc(c56)C[C@H]4N(C)C3)(C(C)C)C(=O)N12`: 8.9.
